Results as given in PubChem BioAssay (NCI).
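Compound exposure: 48 hours, 5 concentrations, 96-well plates. Abbreviation: GI50, concentration required for 50% inhibition of growth. TGI: total growth inhibition.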 Where a SMILES comes first, the peptide text is derived from it. [ ]: non-standard residue; d: D form. The star is where a group is joined. ξ: configuration not given here. ξF = NC(Cc1ccccc1)C(=O)O; Cbz = O=C(OCc1ccccc1)*

Columns and labels:
Experiment in all cases: growth of human tumour cells (NCI), 48 h
[1] = system: SF-295 CNS
[2] = system: BT-549 breast
[3] = system: MCF7 breast
[4] = system: OVCAR-4 ovarian
[5] = system: 786-0 renal
[6] = system: NCI-H23 lung
[7] = system: OVCAR-3 ovarian
[8] = system: SK-OV-3 ovarian
[9] = system: NCI/ADR-RES ovarian
[10] = system: CCRF-CEM leukemia
[11] = system: MOLT-4 leukemia
[12] = system: KM12 colon
[13] = system: A498 renal
[14] = system: UACC-62 melanoma
[15] = system: MDA-N
[16] = system: HL-60(TB) leukemia
[17] = system: SF-539 CNS
[18] = system: SF-268 CNS
[19] = system: K-562 leukemia
[20] = system: SNB-19 CNS
[21] = system: EKVX NSCLC
[22] = system: DU-145 prostate
[23] = system: MALME-3M melanoma
[24] = system: MDA-MB-231 breast
[25] = system: HCT-15 colon
[26] = system: HOP-62 NSCLC
[27] = system: HCT-116 colon
[28] = system: TK-10 renal
[29] = system: MDA-MB-435
[30] = system: ACHN renal
[31] = system: NCI-H522 lung
[32] = system: U251 CNS
[33] = system: SK-MEL-28 melanoma
[34] = system: RXF 393 renal
[35] = system: NCI-H226 lung
[36] = system: NCI-H460 lung
[37] = system: COLO 205 colon
[38] = system: T-47D breast
[39] = system: HS 578T breast
[40] = system: UACC-257 melanoma
[41] = system: SK-MEL-5 melanoma
[42] = system: CAKI-1 renal
[43] = system: A549 NSCLC
[44] = system: PC-3 prostate
[45] = system: HCC-2998 colon
[46] = system: HOP-92 NSCLC
[47] = system: M14 melanoma
[48] = system: HT29 colon
[49] = system: SNB-75 CNS
[50] = system: RPMI-8226 leukemia
[51] = system: SR leukemia
[52] = system: SN12C renal
[53] = system: OVCAR-8 ovarian
[54] = system: SK-MEL-2 melanoma
[55] = system: UO-31 renal
[56] = system: IGROV1 ovarian
[57] = system: OVCAR-5 ovarian
[58] = system: SW-620 colon
[59] = system: LOX IMVI melanoma

`C=CCC(CCC(C)=O)(C(=O)OCC)C(=O)OCC` was tested, and the TGI [1] was over 100 µM, the TGI [2] was over 100 µM and the TGI [3] was over 100 µM. The TGI [4] was over 100 µM, the TGI [5] was over 100 µM and the TGI [6] was over 100 µM. It also gave a TGI [7] of over 100 µM, a TGI [8] of over 100 µM and a TGI [9] of over 100 µM. The TGI [10] was over 100 µM, the TGI [11] was over 100 µM and the TGI [12] was over 100 µM. It also gave a TGI [13] of over 100 µM, a TGI [14] of over 100 µM and a TGI [15] of over 100 µM. It also gave a TGI [16] of over 100 µM, a TGI [17] of over 100 µM and a TGI [18] of over 100 µM. The TGI [19] was over 100 µM, the TGI [20] was over 100 µM and the TGI [21] was over 100 µM. It also gave a TGI [22] of over 100 µM, a TGI [23] of over 100 µM and a TGI [24] of over 100 µM. It also gave a TGI [25] of over 100 µM, a TGI [26] of over 100 µM and a TGI [27] of over 100 µM. It also gave a TGI [28] of over 100 µM, a TGI [29] of over 100 µM and a TGI [30] of over 100 µM. It also gave a TGI [31] of over 100 µM, a TGI [32] of over 100 µM and a TGI [33] of over 100 µM. It also gave a TGI [34] of over 100 µM, a TGI [35] of over 100 µM and a TGI [36] of over 100 µM. The TGI [37] was over 100 µM, the TGI [38] was over 100 µM and the TGI [39] was over 100 µM. It also gave a TGI [40] of over 100 µM, a TGI [41] of over 100 µM and a TGI [42] of over 100 µM. The TGI [43] was over 100 µM, the TGI [44] was over 100 µM and the TGI [45] was over 100 µM. The TGI [46] was over 100 µM, the TGI [47] was over 100 µM and the TGI [48] was over 100 µM. The TGI [49] was over 100 µM, the TGI [50] was over 100 µM and the TGI [51] was over 100 µM. For the same compound, the TGI [52] was over 100 µM, the TGI [53] was over 100 µM and the TGI [54] was over 100 µM. It also gave a TGI [55] of over 100 µM, a TGI [56] of over 100 µM and a TGI [57] of over 100 µM. It also gave a TGI [58] of over 100 µM.

`OCC1CC[N-]CC1.OCC1CC[N-]CC1.[Cl][Pt+2]([Cl])([Cl])[Cl]` gave a GI50 [2] of 27 µM, a GI50 [3] of 26.2 µM and a GI50 [4] of 42.5 µM. The GI50 [59] was 11.4 µM, the GI50 [5] was 34.9 µM and the GI50 [6] was 28.6 µM. For the same compound, the GI50 [7] was 45.9 µM, the GI50 [8] was 36.9 µM and the GI50 [9] was 33.8 µM. The GI50 [12] was 28.9 µM, the TGI [12] was 77.3 µM and the GI50 [13] was 95.3 µM. For the same compound, the GI50 [14] was 29.4 µM, the GI50 [15] was 28.9 µM and the GI50 [17] was 41.9 µM. For the same compound, the GI50 [18] was 40.5 µM, the GI50 [19] was 35.9 µM and the GI50 [20] was 48 µM. For the same compound, the GI50 [21] was 30.7 µM, the GI50 [22] was 20.8 µM and the TGI [22] was 61.5 µM. For the same compound, the GI50 [23] was 36.4 µM, the GI50 [24] was 33.6 µM and the GI50 [25] was 27.8 µM. It also gave a GI50 [26] of 33.1 µM, a GI50 [27] of 25.6 µM and a TGI [27] of 86.5 µM. It also gave a GI50 [28] of 37.3 µM, a GI50 [29] of 24.4 µM and a TGI [29] of 64.9 µM. It also gave a GI50 [30] of 38.8 µM, a GI50 [31] of 9.53 µM and a TGI [31] of 46.3 µM. The GI50 [32] was 19.6 µM, the TGI [32] was 53 µM and the GI50 [33] was 60 µM. The GI50 [35] was 39.5 µM, the GI50 [36] was 27.9 µM and the TGI [36] was 95.7 µM. The GI50 [37] was 29.3 µM, the GI50 [38] was 15.2 µM and the TGI [38] was 58.1 µM. For the same compound, the GI50 [39] was 45.8 µM, the GI50 [40] was 31 µM and the GI50 [41] was 34.5 µM. For the same compound, the GI50 [42] was 20.3 µM, the TGI [42] was 81.5 µM and the GI50 [43] was 52.7 µM. The TGI [44] was 73 µM, the GI50 [45] was 35.4 µM and the GI50 [46] was 34.2 µM. For the same compound, the TGI [46] was 87 µM, the GI50 [47] was 22.2 µM and the TGI [47] was 65 µM. The GI50 [48] was 17.1 µM, the TGI [48] was 51.7 µM and the GI50 [50] was 15.2 µM. It also gave a TGI [50] of 53.1 µM, a GI50 [51] of 8.08 µM and a GI50 [52] of 30.8 µM. The GI50 [53] was 31.1 µM, the GI50 [54] was 27 µM and the TGI [54] was 67.3 µM. For the same compound, the GI50 [55] was 31.2 µM, the TGI [55] was 89.9 µM and the GI50 [56] was 25.2 µM. It also gave a GI50 [57] of 22.7 µM, a TGI [57] of 51.5 µM and a GI50 [58] of 23 µM.

`CCOC(=O)CNC(=O)C(Cc1ccccc1)NC(=O)OCc1ccccc1` (stereo unspecified) (Cbz-[ξF]-Gly-OEt) was tested, and the TGI [1] was over 100 µM, the TGI [2] was over 100 µM and the TGI [3] was over 100 µM. For the same compound, the TGI [59] was over 100 µM, the TGI [5] was over 100 µM and the TGI [6] was over 100 µM. The TGI [7] was over 100 µM, the TGI [8] was over 100 µM and the TGI [9] was over 100 µM. It also gave a TGI [10] of over 100 µM, a TGI [11] of over 100 µM and a TGI [12] of over 100 µM. For the same compound, the TGI [13] was over 100 µM, the TGI [15] was over 100 µM and the TGI [16] was over 100 µM. The TGI [18] was over 100 µM, the TGI [19] was over 100 µM and the TGI [20] was over 100 µM. The TGI [21] was over 100 µM, the TGI [22] was over 100 µM and the TGI [23] was over 100 µM. For the same compound, the TGI [24] was over 100 µM, the TGI [25] was over 100 µM and the TGI [26] was over 100 µM. The TGI [27] was over 100 µM, the TGI [29] was over 100 µM and the TGI [30] was over 100 µM. The TGI [32] was over 100 µM, the TGI [35] was over 100 µM and the TGI [36] was over 100 µM. It also gave a TGI [37] of over 100 µM, a TGI [38] of over 100 µM and a TGI [39] of over 100 µM. For the same compound, the TGI [41] was over 100 µM, the TGI [43] was over 100 µM and the TGI [44] was over 100 µM. The TGI [45] was over 100 µM, the TGI [46] was over 100 µM and the TGI [47] was over 100 µM. The TGI [48] was over 100 µM, the TGI [49] was over 100 µM and the TGI [50] was over 100 µM. For the same compound, the TGI [51] was over 100 µM, the TGI [52] was over 100 µM and the TGI [53] was over 100 µM. For the same compound, the TGI [55] was over 100 µM, the TGI [56] was over 100 µM and the TGI [57] was over 100 µM. For the same compound, the TGI [58] was over 100 µM.
